Assay results: PubChem BioAssay AID1259407 (Chemical Carcinogenesis Research Information System (CCRIS), 2018)
Activity calls are given as the source filed them. The rule behind the calls is not given here.

Test system: CCRIS mutagenicity, Ames/micronucleus/aberration tests
Test: CCRIS mutagenicity studies
[1] = Test System: AMES SALMONELLA TYPHIMURIUM, Strain/Indicator: TA98, Metabolic Activation: NONE, Method: STANDARD PLATE
[2] = Test System: AMES SALMONELLA TYPHIMURIUM, Strain/Indicator: TA98, Metabolic Activation: RAT, LIVER, S-9, AROCLOR 1254, Method: STANDARD PLATE
[3] = Test System: AMES SALMONELLA TYPHIMURIUM, Strain/Indicator: TA100, Metabolic Activation: NONE, Method: STANDARD PLATE
[4] = Test System: AMES SALMONELLA TYPHIMURIUM, Strain/Indicator: TA100, Metabolic Activation: RAT, LIVER, S-9, AROCLOR 1254, Method: STANDARD PLATE

For `[O-]/[N+](=N\O)c1ccccc1`, the mutagenic call (Test System: AMES SALMONELLA TYPHIMURIUM, Strain/Indicator: TA98, Metabolic Activation: HAMSTER, LIVER, S-9, AROCLOR 1254, Method: STANDARD PLATE) was “inactive; negative”, the mutagenic call (Test System: AMES SALMONELLA TYPHIMURIUM, Strain/Indicator: TA98, Metabolic Activation: MOUSE, LIVER, S-9, AROCLOR 1254, Method: STANDARD PLATE) was “inactive; negative” and the mutagenic call (Test System: AMES SALMONELLA TYPHIMURIUM, Strain/Indicator: TA98, Metabolic Activation: MOUSE, LIVER, S-9, Method: STANDARD PLATE) was “inactive; negative”. The mutagenic call [1] was “inactive; negative”, the mutagenic call [2] was “inactive; negative” and the mutagenic call (Test System: AMES SALMONELLA TYPHIMURIUM, Strain/Indicator: TA98, Metabolic Activation: RAT, LIVER, S-9, Method: STANDARD PLATE) was “inactive; negative”. The mutagenic call (Test System: AMES SALMONELLA TYPHIMURIUM, Strain/Indicator: TA100, Metabolic Activation: HAMSTER, LIVER, S-9, AROCLOR 1254, Method: STANDARD PLATE) was “inactive; negative”, the mutagenic call (Test System: AMES SALMONELLA TYPHIMURIUM, Strain/Indicator: TA100, Metabolic Activation: HAMSTER, LIVER, S-9, Method: STANDARD PLATE) was “inactive; negative” and the mutagenic call (Test System: AMES SALMONELLA TYPHIMURIUM, Strain/Indicator: TA100, Metabolic Activation: MOUSE, LIVER, S-9, AROCLOR 1254, Method: STANDARD PLATE) was “inactive; negative”. For the same molecule, the mutagenic call (Test System: AMES SALMONELLA TYPHIMURIUM, Strain/Indicator: TA100, Metabolic Activation: MOUSE, LIVER, S-9, Method: STANDARD PLATE) was “inactive; negative”, the mutagenic call [3] was “inactive; negative” and the mutagenic call [4] was “inactive; negative”. For the same molecule, the mutagenic call (Test System: AMES SALMONELLA TYPHIMURIUM, Strain/Indicator: TA100, Metabolic Activation: RAT, LIVER, S-9, Method: STANDARD PLATE) was “inactive; negative”, the mutagenic call (Test System: AMES SALMONELLA TYPHIMURIUM, Strain/Indicator: TA1535, Metabolic Activation: HAMSTER, LIVER, S-9, AROCLOR 1254, Method: STANDARD PLATE) was “inactive; negative” and the mutagenic call (Test System: AMES SALMONELLA TYPHIMURIUM, Strain/Indicator: TA1535, Metabolic Activation: HAMSTER, LIVER, S-9, Method: STANDARD PLATE) was “inactive; negative”. The mutagenic call (Test System: AMES SALMONELLA TYPHIMURIUM, Strain/Indicator: TA1535, Metabolic Activation: MOUSE, LIVER, S-9, AROCLOR 1254, Method: STANDARD PLATE) was “inactive; negative”, the mutagenic call (Test System: AMES SALMONELLA TYPHIMURIUM, Strain/Indicator: TA1535, Metabolic Activation: MOUSE, LIVER, S-9, Method: STANDARD PLATE) was “inactive; negative” and the mutagenic call (Test System: AMES SALMONELLA TYPHIMURIUM, Strain/Indicator: TA1535, Metabolic Activation: NONE, Method: STANDARD PLATE) was “inactive; negative”. For the same molecule, the mutagenic call (Test System: AMES SALMONELLA TYPHIMURIUM, Strain/Indicator: TA1535, Metabolic Activation: RAT, LIVER, S-9, AROCLOR 1254, Method: STANDARD PLATE) was “inactive; negative”, the mutagenic call (Test System: AMES SALMONELLA TYPHIMURIUM, Strain/Indicator: TA1535, Metabolic Activation: RAT, LIVER, S-9, Method: STANDARD PLATE) was “inactive; negative” and the mutagenic call (Test System: AMES SALMONELLA TYPHIMURIUM, Strain/Indicator: TA1537, Metabolic Activation: HAMSTER, LIVER, S-9, AROCLOR 1254, Method: STANDARD PLATE) was “inactive; negative”. For the same molecule, the mutagenic call (Test System: AMES SALMONELLA TYPHIMURIUM, Strain/Indicator: TA1537, Metabolic Activation: HAMSTER, LIVER, S-9, Method: STANDARD PLATE) was “inactive; negative”, the mutagenic call (Test System: AMES SALMONELLA TYPHIMURIUM, Strain/Indicator: TA1537, Metabolic Activation: MOUSE, LIVER, S-9, AROCLOR 1254, Method: STANDARD PLATE) was “inactive; negative” and the mutagenic call (Test System: AMES SALMONELLA TYPHIMURIUM, Strain/Indicator: TA1537, Metabolic Activation: MOUSE, LIVER, S-9, Method: STANDARD PLATE) was “inactive; negative”. For the same molecule, the mutagenic call (Test System: AMES SALMONELLA TYPHIMURIUM, Strain/Indicator: TA1537, Metabolic Activation: NONE, Method: STANDARD PLATE) was “inactive; negative”, the mutagenic call (Test System: AMES SALMONELLA TYPHIMURIUM, Strain/Indicator: TA1537, Metabolic Activation: RAT, LIVER, S-9, AROCLOR 1254, Method: STANDARD PLATE) was “inactive; negative” and the mutagenic call (Test System: AMES SALMONELLA TYPHIMURIUM, Strain/Indicator: TA1537, Metabolic Activation: RAT, LIVER, S-9, Method: STANDARD PLATE) was “inactive; negative”. For the same molecule, the mutagenic call (Test System: AMES SALMONELLA TYPHIMURIUM, Strain/Indicator: TA1538, Metabolic Activation: HAMSTER, LIVER, S-9, AROCLOR 1254, Method: STANDARD PLATE) was “inactive; negative”, the mutagenic call (Test System: AMES SALMONELLA TYPHIMURIUM, Strain/Indicator: TA1538, Metabolic Activation: HAMSTER, LIVER, S-9, Method: STANDARD PLATE) was “inactive; negative” and the mutagenic call (Test System: AMES SALMONELLA TYPHIMURIUM, Strain/Indicator: TA1538, Metabolic Activation: RAT, LIVER, S-9, AROCLOR 1254, Method: STANDARD PLATE) was “inactive; negative”. The mutagenic call (Test System: E. COLI, Strain/Indicator: WP2 UVRA, Metabolic Activation: HAMSTER, LIVER, S-9, Method: STANDARD PLATE) was “inactive; negative”, the mutagenic call (Test System: E. COLI, Strain/Indicator: WP2 UVRA, Metabolic Activation: MOUSE, LIVER, S-9, AROCLOR 1254, Method: STANDARD PLATE) was “inactive; negative” and the mutagenic call (Test System: E. COLI, Strain/Indicator: WP2 UVRA, Metabolic Activation: MOUSE, LIVER, S-9, Method: STANDARD PLATE) was “inactive; negative”. For the same molecule, the mutagenic call (Test System: E. COLI, Strain/Indicator: WP2 UVRA, Metabolic Activation: NONE, Method: STANDARD PLATE) was “inactive; negative” and the mutagenic call (Test System: E. COLI, Strain/Indicator: WP2 UVRA, Metabolic Activation: RAT, LIVER, S-9, Method: STANDARD PLATE) was “inactive; negative”.

In the case of `CC(=O)OC(C)(C)C`, the mutagenic call (Test System: AMES SALMONELLA TYPHIMURIUM, Strain/Indicator: TA98, Metabolic Activation: NONE, Method: PREINCUBATION) is reported as “inactive; negative”, the mutagenic call (Test System: AMES SALMONELLA TYPHIMURIUM, Strain/Indicator: TA98, Metabolic Activation: RAT, LIVER, S-9, AROCLOR 1254, Method: PREINCUBATION) is reported as “inactive; negative” and the mutagenic call (Test System: AMES SALMONELLA TYPHIMURIUM, Strain/Indicator: TA100, Metabolic Activation: NONE, Method: PREINCUBATION) is reported as “inactive; negative”. The mutagenic call (Test System: AMES SALMONELLA TYPHIMURIUM, Strain/Indicator: TA100, Metabolic Activation: RAT, LIVER, S-9, AROCLOR 1254, Method: PREINCUBATION) was “inactive; negative”, the mutagenic call (Test System: AMES SALMONELLA TYPHIMURIUM, Strain/Indicator: TA102, Metabolic Activation: NONE, Method: PREINCUBATION) was “inactive; negative” and the mutagenic call (Test System: AMES SALMONELLA TYPHIMURIUM, Strain/Indicator: TA102, Metabolic Activation: RAT, LIVER, S-9, AROCLOR 1254, Method: PREINCUBATION) was “inactive; negative”. For the same molecule, the mutagenic call (Test System: AMES SALMONELLA TYPHIMURIUM, Strain/Indicator: TA1535, Metabolic Activation: NONE, Method: PREINCUBATION) was “inactive; negative”, the mutagenic call (Test System: AMES SALMONELLA TYPHIMURIUM, Strain/Indicator: TA1535, Metabolic Activation: RAT, LIVER, S-9, AROCLOR 1254, Method: PREINCUBATION) was “inactive; negative” and the mutagenic call (Test System: AMES SALMONELLA TYPHIMURIUM, Strain/Indicator: TA1537, Metabolic Activation: NONE, Method: PREINCUBATION) was “inactive; negative”. For the same molecule, the mutagenic call (Test System: AMES SALMONELLA TYPHIMURIUM, Strain/Indicator: TA1537, Metabolic Activation: RAT, LIVER, S-9, AROCLOR 1254, Method: PREINCUBATION) was “inactive; negative”, the mutagenic call (Test System: E. COLI, Strain/Indicator: WP2UVRA/PKM, Metabolic Activation: NONE, Method: PREINCUBATION) was “inactive; negative” and the mutagenic call (Test System: E. COLI, Strain/Indicator: WP2UVRA/PKM, Metabolic Activation: RAT, LIVER, S-9, AROCLOR 1254, Method: PREINCUBATION) was “inactive; negative”.

In the case of `Cc1ccc(N=CN(C)C=Nc2ccc(C)cc2C)c(C)c1`, the mutagenic call (Test System: AMES SALMONELLA TYPHIMURIUM, Strain/Indicator: TA97, Metabolic Activation: NONE, Method: STANDARD PLATE) is reported as “inactive; negative”, the mutagenic call (Test System: AMES SALMONELLA TYPHIMURIUM, Strain/Indicator: TA97, Metabolic Activation: RAT, LIVER, S-9, AROCLOR 1254, Method: STANDARD PLATE) is reported as “inactive; negative” and the mutagenic call [1] is reported as “inactive; negative”. For the same molecule, the mutagenic call [2] was “inactive; negative”, the mutagenic call [3] was “inactive; negative” and the mutagenic call [4] was “inactive; negative”. The mutagenic call (Test System: AMES SALMONELLA TYPHIMURIUM, Strain/Indicator: TA102, Metabolic Activation: NONE, Method: STANDARD PLATE) was “inactive; negative” and the mutagenic call (Test System: AMES SALMONELLA TYPHIMURIUM, Strain/Indicator: TA102, Metabolic Activation: RAT, LIVER, S-9, AROCLOR 1254, Method: STANDARD PLATE) was “inactive; negative”.

In the case of `c1cc2ccc3cc4ccoc4c4ccc(c1)c2c34`, the mutagenic call [1] is reported as “inactive; negative” and the mutagenic call [2] is reported as “active; positive”.

`Cn1cc(C(=O)O)c(=O)c2ccc(/C=C/c3ccc([N+](=O)[O-])o3)nc21` was tested, and the mutagenic call (Test System: AMES SALMONELLA TYPHIMURIUM, Strain/Indicator: TA100, Metabolic Activation: RAT, LIVER, S-9, KC500 OR PHENOBARBITAL, Method: LIQUID SUSPENSION) was “active; positive”.
